Results from patent US11976055B1, “2-(1-(3-(dimethylamino)propyl)-4,5-diphenyl-1H-imidazol-2-yl)pyridin-3-ol as an antitumor and antimicrobial compound” (KING FAISAL UNIVERSITY, priority 2023, dated 2024).

How the values were obtained:
[1] = system: human prostate cancer cells (PC3); experiment: Cytotoxicity by SRB assay, PC3 cells; type: cell-based; conditions: androgen-independent metastatic human prostate cancer cells (PC3), 0.01 μM to 100 μM, 72 h
Procedure: (§1) The human prostate cancer cells (PC3) and human osteosarcoma cells (MG-63) were obtained from Nawah Scientific Inc. (Mokatam, Cairo, Egypt) and cultured in DMEM (Dulbecco's modified eagle's medium), Gibco, USA, supplemented with fetal bovine serum (FBS) at a concentration of 10% and 100 U/mL of penicillin and streptomycin (PS). The Cells were incubated at 37° C. in a humidified environment that contained 5% CO2. Cells were seeded in 96-well plates as aliquots of 100 μL cell suspension and incubated in a complete media for 24 h. afterward, cells were treated with 2-(1-(3-(Dimethylamino)propyl)-4,5-diphenyl-1H-imidazol-2-yl)pyridin-3-ol at diverse concentrations ranging from 0.01 μM to 100 μM for 72 h. […] Then, 150 μL of Tris pH 10.5 (10 mM) was added, and the absorbance was measured at 540 nm using a BMG LABTECH®-FLUOstar Omega microplate reader (Ortenberg, Germany). Half maximal inhibitory concentrations (IC50) values were calculated for each experiment using GraphPad Prism 6 software. […] The inhibition was calculated using the following equation: Inhibition %=100−Average Viability The anticancer activity of 2-(1-(3-(Dimethylamino)propyl)-4,5-diphenyl-1H-imidazol-2-yl)pyridin-3-ol was assessed against highly aggressive androgen-independent metastatic human prostate cancer cells (PC3) and osteosarcoma (MG-63) cells.

[2] = system: human osteosarcoma cells (MG-63); experiment: Cytotoxicity by SRB assay, MG-63 cells; type: cell-based; conditions: osteosarcoma (MG-63) cells, 0.01 μM to 100 μM, 72 h
Procedure: as §1

Structure (SMILES): CN(C)CCCn1c(-c2ncccc2O)nc(-c2ccccc2)c1-c1ccccc1 [2-(1-(3-(Dimethylamino)propyl)-4,5-diphenyl-1H-imidazol-2-yl)pyridin-3-ol]
- antiproliferative activity against PC3 cells [1]: excellent antiproliferative activities
- antiproliferative activity against MG-63 cells [2]: excellent antiproliferative activities
- melting point: 133 to 135 °C
